Source: patent US20040157910A1, “Method of treatment or prophylaxis” (SmithKline Beecham Corporation, priority 2003, published 2004)
Counter-ions that a name gives are not always drawn.

Tests used:
Restless Legs Syndrome [1] = conditions: RLS, cited from earlier work
Restless Legs Syndrome [2] = conditions: RLS; well controlled studies prior to 1987; cited from earlier work
Restless Legs Syndrome [3] = assay: RLS patients treated with ropinirole (patient reports); type: in vivo, human; conditions: almost at once

## N[C@@H](Cc1ccc(O)c(O)c1)C(=O)O [L-dopa]
Restless Legs Syndrome [1]; L-dopa
  time for which the effect has been maintained: 2 years
Restless Legs Syndrome [1]; doses of L-dopa of 100 mg to 200 mg
  patients in whom treatment was effective: 70 % of patients

## NC(=O)N1c2ccccc2C=Cc2ccccc21 [carbamazepine]
Restless Legs Syndrome [2]
  efficacy compared with placebo: superior to placebos

## O=C1CN=C(c2ccccc2Cl)c2cc([N+](=O)[O-])ccc2N1 [clonazepam]
Restless Legs Syndrome [2]
  efficacy compared with placebo: superior to placebos

## CCCN(CCC)CCc1cccc2c1CC(=O)N2 [ropinirole, 4-[2-(di-n-propylamino)ethyl]-1,3-dihydro-2H-indolin-2-one hydrochloride]
Restless Legs Syndrome [3]
  improvement in condition reported by RLS patients: dramatic improvement
